Data from patent US20080063702A1, “Liposomal Formulations Comprising an Amphipathic Weak Base Like Tempamine for Treatment of Neurodegenerative Conditions” (priority 2004, published 2008).

Tests used:
[1] = tested on: PLP injected animals (acute EAE, model for MS); assay: Acute EAE induced with PLP 139-151, clinical signs scoring; type: in vivo, SJL female mice
PC12 neurons = assay: MPP+ toxicity experiment, LDH leakage assay in NGF-differentiated PC12 cells; type: cell-based
Experimental: PC12 cells were grown in Dulbecco's modified Eagle's medium (DMEM), supplemented with 7% fetal calf serum, 7% horse serum, 100 μg/ml streptomycin, and 100 U/ml penicillin. The cultures were maintained in an incubator at 37° C. in a humidified atmosphere of 6% CO2. The growth medium was changed twice weekly and the cultures were split at 1:6 ratio once a week [Abu-Raya et al. J. Neurosci. Methods 50:197-203 (1993)].
For differentiation, an identical number of PC12 cells (3.75×10^5 cells) was plated on 6-wells plates coated with rat tail type I collagen (0.1 mg/ml) to promote cell adhesion [Abu-Raya et al Rasagiline, a monoamine oxidase-B inhibitor, protects NGF-differentiated PC12 cells against oxygen-glucose deprivation. J. Neurosci. Res. 58:456-463 (1999)]. The differentiation of the cultures was induced by treatment with NGF (50 ng/ml), added every 48 hr for a period of 7-8 days.
Cell death was evaluated by measuring the leakage of LDH into the growth medium as previously described [Abu-Raya et al. J. Neurosci. Res. 58:456-463, (1999)]. Samples of 50 μl of the growth medium were collected from each well and centrifuged at 3,500 rpm for 5 min at 25° C.; the supernatant was collected and LDH release was measured using a TRACE LD-L reagent. LDH activity was determined using an ELISA reader (TECAN, SPECTRAFluor PLUS, Grodig, Salzburg, Austria) at 340 nm by following the rate of conversion of oxidized nicotinamide adenine dinucleotide (NAD^+) to the reduced form of (NADH). MPP^+-induced LDH release was expressed as 100% of toxicity compared to control-untreated cultures. Each experiment was performed three times in duplicates (n=6).
On the day of the experiment, the NGF containing medium was replaced with fresh one. […]
MPP^+ was dissolved in growth medium containing NGF and added to each well in a final concentration of 1500 μM. […] The experiment was accomplished when percentage of cell death was in the range 30-60%, measured by the release of LDH into the medium. […]

In the case of CC1(C)CC(N)CC(C)(C)N1[O] [TMN, 2,2,6,6-tetramethylpiperidine-4-amino-1-oxyl], the “effect on clinical signs of MS, in words” value ([1]; SSL-TMN i.v., 80 nm, compared with Copaxone, Betaferon, empty SSL, free TMN, FIG. 2) is reported as “no observed effect against the disease”, the “#dead” value ([1]; Table 4B) is reported as 1 and the MDD ([1]; Table 4B) is reported as 19 ± 1.2. The MDO ([1]; Table 4B) was 14 ± 0.5, the MMS ([1]; Table 4B) was 3.9 ± 0.53 and the Mean score ([1]; Table 4B) was 3.5 ± 0.21. The Incidence ([1]; Table 4B, free TMN at same concentration as encapsulated in the liposomes) was 5/5, the “toxicity to the cells at higher concentration (bell shape)” value (PC12 neurons; 500 μM-1000 μM TMN) was “toxic to the cells” and the “protection of PC12 neurons from oxidative damage inflicted by MPP+ (LDH release)” value (PC12 neurons; 1500 μM MPP+, TMN 0.1-100 μM added 1 hr before, LDH after 48 hr, FIG. 1) was “protects PC12 neurons from oxidative damage”. For the same molecule, the “most effective TMN concentration for protection against MPP+” value (PC12 neurons; 1500 μM MPP+, dose response 0.1-1000 μM) was 100 µM.
